Laboratory results from PubChem BioAssay (NCI).
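These data come from cells grown in 96-well plates and exposed to compound for 48 hours at five concentrations. Here, GI50 denotes the concentration required for 50% inhibition of growth. TGI denotes the concentration required for complete inhibition of growth.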

Legend:
Assay in all cases: NCI tumour cell line growth inhibition, 48 h
A549 NSCLC = tested on: A549 NSCLC
EKVX NSCLC = tested on: EKVX NSCLC
HCT-15 colon = tested on: HCT-15 colon
K-562 leukemia = tested on: K-562 leukemia
MDA-MB-435 = tested on: MDA-MB-435
NCI-H23 lung = tested on: NCI-H23 lung
NCI-H522 lung = tested on: NCI-H522 lung
RXF 393 renal = tested on: RXF 393 renal
SNB-19 CNS = tested on: SNB-19 CNS
T-47D breast = tested on: T-47D breast

Compound | TGI (A549 NSCLC) | TGI (EKVX NSCLC) | TGI (HCT-15 colon) | TGI (K-562 leukemia) | TGI (MDA-MB-435) | TGI (NCI-H23 lung) | TGI (NCI-H522 lung) | TGI (RXF 393 renal) | TGI (SNB-19 CNS) | TGI (T-47D breast) | GI50 (A549 NSCLC) | GI50 (EKVX NSCLC) | GI50 (HCT-15 colon) | GI50 (K-562 leukemia) | GI50 (MDA-MB-435) | GI50 (NCI-H23 lung) | GI50 (NCI-H522 lung) | GI50 (RXF 393 renal) | GI50 (SNB-19 CNS) | GI50 (T-47D breast)
Cc1c(C(=O)O)n2c(=S)[nH]nc2c2ccccc12 | > 100 µM | > 100 µM | > 100 µM | > 100 µM | > 100 µM | > 100 µM | > 100 µM | > 100 µM | > 100 µM | > 100 µM | – | – | – | – | – | – | – | – | – | –
CN(C)Cc1c(O)ccc2c1c1c(n2C)C(=O)c2ccccc2C1=O | > 100 µM | > 100 µM | > 100 µM | > 100 µM | 21.1 µM | 27.4 µM | 20.8 µM | 81.5 µM | > 100 µM | > 100 µM | – | – | – | – | – | – | – | – | – | –
COC(=O)Nc1nc2ccc(S(=O)(=O)Nc3ccccn3)cc2[nH]1 | > 100 µM | > 100 µM | > 100 µM | 75.9 µM | 44.5 µM | > 100 µM | > 100 µM | > 100 µM | > 100 µM | > 100 µM | – | – | – | – | – | – | – | – | – | –
COC(=O)CNC(=O)C(Cc1ccccc1)NC(=O)c1ccc(-c2ccc(Cl)cc2Cl)o1 (stereo not given) | > 100 µM | 78.6 µM | 89.4 µM | > 100 µM | > 100 µM | > 100 µM | 43.3 µM | 73.5 µM | > 100 µM | > 100 µM | – | – | – | – | – | – | – | – | – | –
Cn1cnc(N2CCCC2)c(C#N)c1=S | > 100 µM | > 100 µM | > 100 µM | > 100 µM | > 100 µM | > 100 µM | > 100 µM | > 100 µM | > 100 µM | > 100 µM | – | – | – | – | – | – | – | – | – | –
CNC(=O)N(CCC#N)CCN(C(=O)NC)c1ccccc1 | > 100 µM | > 100 µM | > 100 µM | > 100 µM | > 100 µM | > 100 µM | > 100 µM | > 100 µM | > 100 µM | > 100 µM | – | – | – | – | – | – | – | – | – | –
CC(=O)OCC1OC(n2cnc3nc(Br)[nH]c(=O)c32)C(OC(C)=O)C1OC(C)=O (stereo not given) | > 100 µM | > 100 µM | > 100 µM | > 100 µM | > 100 µM | > 100 µM | > 100 µM | > 100 µM | > 100 µM | > 100 µM | – | – | – | – | – | – | – | – | – | –
Cc1ccc(S(=O)(=O)N2CCC[C@@H]2C(=O)O[C@@H]2CCC3CC=CC32)cc1 (stereo not given in full) | > 100 µM | > 100 µM | > 100 µM | > 100 µM | > 100 µM | > 100 µM | 50.8 µM | 66.5 µM | > 100 µM | > 100 µM | – | – | – | – | – | – | – | – | – | –
Cn1c(-c2ccc[se]2)ccc1-c1ccc(C=O)[se]1 | > 100 µM | > 100 µM | > 100 µM | > 100 µM | > 100 µM | 48.9 µM | 35.2 µM | 7.14 µM | > 100 µM | 12.4 µM | – | – | – | – | – | – | – | – | – | –
CC(C)NC(=O)OCc1c(COC(=O)NC(C)C)c(-c2ccc[n+](COC(=O)Cc3ccccc3)c2)n2c1CCC2 | > 100 µM | > 100 µM | > 100 µM | > 100 µM | > 100 µM | 69.6 µM | 36.2 µM | 67.3 µM | > 100 µM | > 100 µM | – | – | – | – | – | – | – | – | – | –
C=C(C)[C@@H](O)[C@H](O)C[C@H](C)C1CC[C@]2(C)C1=CC[C@@H]1[C@@]3(C)CC[C@@H](OC(C)=O)C(C)(C)[C@@H]3C[C@@H](OC3OC(COC(C)=O)C(O)C(O)C3O)[C@]12C (stereo not given in full) | 12.2 µM | 12.3 µM | 11.7 µM | 5.21 µM | 4.42 µM | 16.1 µM | 3.55 µM | 4.49 µM | 14.7 µM | 8.51 µM | – | – | – | – | – | – | – | – | – | –
COc1ccc2c(c1)N(Cc1ccc(Cl)cc1)CCC2N1CCCC1=O (stereo not given) | 51.5 µM | 19.1 µM | > 100 µM | > 100 µM | 15 µM | 57.2 µM | 35.8 µM | 10.9 µM | 51.7 µM | 26.2 µM | 4.48 µM | 3.39 µM | 4 µM | 4.6 µM | 3.77 µM | 4.37 µM | 4.33 µM | 2770 nM | 4.3 µM | 2850 nM
